# Values of other authors, collected in US4758437A, “Composition for long acting nicardipine preparation and process of producing the composition” (Yamanouchi Pharmaceutical Co., Ltd., priority 1987, dated 1988).
smiles,measurement,setting,value
"COC(=O)C1=C(C)NC(C)=C(C(=O)OCCN(C)Cc2ccccc2)C1c1cccc([N+](=O)[O-])c1 (stereo not drawn) [nicardipine, 2,6-dimethyl-4-(3'-nitrophenyl)-1,4-dihydropyridine-3,5-dicarboxylic acid-3-methyl ester-5-β-(N-benzyl-N-methylamino)-ethyl ester]",solubility in the first fluid of Japanese Pharmacopeia IX,"about pH 1.2, nicardipine or its salt",good solubility
same,solubility in the second fluid of Japanese Pharmacopeia IX,about pH 7.5,sparingly soluble
same,solubility in intestinal juice,intestinal juice,practically insoluble
